Assay results published in US9926304B2, “1-(arylmethyl)quinazoline-2,4(1H,3H)-diones as PARP inhibitors and the use thereof” (Impact Therapeutics, Inc., priority 2011, dated 2018).
Structures can show the parent of a compound that is named as a salt. Where two headings read alike, the source gives them in different places.

Key:
[1] = test system: Human breast cancer cell line T47D; experiment: Cell based caspase-3 activity assay: potentiation of MMS induced apoptosis; conditions: T47D cells, 11.1 μg/ml MMS, 24 hours, intracellular caspase-3 activity, read-out: EC50 (nM), potentiation of the apoptosis inducing activity of MMS
In short: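 T47D cells were exposed for 24 h to compound plus a minimally apoptotic MMS dose (medium containing 11.1 μg/ml MMS). Lysates were incubated 3 h at 37 °C with (Ac-DEVD)2-R110 caspase-3 substrate (20 μM in added buffer) and read at ex 496/em 520 nm. EC50 came from a sigmoidal fit of RFU versus log concentration.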

[2] = test system: SW620 human colorectal cancer cells; experiment: MTT based cell viability assay: potentiation of the growth inhibiting activity of MMS
Description: Briefly, SW620 human colorectal cancer cells were used to measure the cell growth inhibiting activity of DNA alkylating anticancer drug MMS. […] SW620 cells were grown and maintained in RPMI1640 (Gibco) medium supplemented with 10% FBS (Hyclone). In the first day of experiment, 4000 cells were seeded to each well of a 96-well cell culture plate and incubated at 37° C. and 5% CO2 in a cell culture incubator overnight. In the next day, the cell culture medium was removed. […] The serial dilutions of the reference compounds and the compounds to be tested were made with a 1:3 and 1:10 fashion in DMSO. The 10-fold concentrated solutions of these compounds were made by mixing 10 μl of the serial dilutions in DMSO with 90 μl fresh medium. The final concentration of DMSO in the medium was 1%. The cells were incubated at 37° C. in 5% CO2 cell culture incubator for additional 5 days (120 hours). Afterwards, the 96-well cell culture plate was taken out and 20 μl of MTT solution was added to each well and incubated at 37° C. for 4 h. The medium was removed and 100 μl DMSO was added to each well. The 96-well cell culture plates were shaked adequately for 10 min and read in a Varioskan Flash plate reader (Thermo Fisher Scientific) at 520 and 690 nm. The data were analyzed by Prism 5 software (GraphPad). The obtained 520 nm absorbance readings subtracting corresponding 690 nm reading were analyzed and plotted against the Log scale of the compound concentrations.

[3] = Homo sapiens, SW-620, 120 h, read-out: IC50 (nM), potentiation of the growth inhibiting activity of MMS, SW620 cells, 1.7 μg/ml MMS, 5 days (120 hours), MTT
[4] = read-out: IC50 (nM), potentiation of the growth inhibiting activity of MMS, SW620 cells, 1.7 μg/ml MMS, 5 days (120 hours), MTT

Row | EC50 ([1]; Homo sapiens, T47D, 24 h) [nM] | IC50 [2, 3] [nM] | EC50 [1] [nM] | IC50 [2, 4] [nM] | Molecule
1 | 261 | 394 | – | – | Cc1cccc2c1c(=O)[nH]c(=O)n2Cc1cccc(C(=O)N2CCN(C(=O)C3CCCC3)CC2)c1 [Example 160, 1-(3-(4-(Cyclopentylcarbonyl)piperazine-1-carbonyl)benzyl)-5-methylquinazoline-2,4(1H,3H)-dione]
2 | – | – | > 10000 | > 10000 | 1-(3-(5-Bromopyrimidin-2-aminocarbamoyl)-4-fluorobenzyl)-5-fluoroquinazoline-2,4(1H,3H)-dione [Example 205]
3 | 42 | 28 | – | – | O=C(c1cc(Cn2c(=O)[nH]c(=O)c3c(F)cccc32)ccc1F)N1CCN(C(=O)C2CC2)CC1 [Example 163, 1-(3-(4-(Cyclopropylcarbonyl)piperazine-1-carbonyl)-4-fluorobenzyl)-5-fluoroquinazoline-2,4(1H,3H)-dione]
4 | 40 | 13 | – | – | COc1cccc2c(=O)[nH]c(=O)n(Cc3cccc(C(=O)N4CCN(c5ncccn5)CC4)c3)c12 [Example 227, 8-Methoxy-1-(3-(4-(pyrimidin-2-yl)piperazine-1-carbonyl)benzyl)quinazoline-2,4(1H,3H)-dione]
5 | 14 | 16 | – | – | O=C(c1cc(F)cc(Cn2c(=O)[nH]c(=O)c3cc(Cl)ccc32)c1)N1CCN(c2ncccn2)CC1 [Example 175, 6-Chloro-1-(5-fluoro-3-(4-(pyrimidin-2-yl)piperazine-1-carbonyl)benzyl)quinazoline-2,4(1H,3H)-dione]
6 | > 10000 | > 10000 | – | – | COc1ccc(CC(=O)Nc2cccc(Cn3c(=O)[nH]c(=O)c4ccccc43)c2)cc1OC [Example 197, 1-(3-(3,4-Dimethoxyphenyl)acetamidobenzyl)quinazoline-2,4(1H,3H)-dione]
7 | > 10000 | > 10000 | – | – | COc1ccc(CNC(=O)c2cc(Cn3c(=O)[nH]c(=O)c4c(F)cccc43)ccc2F)cc1 [Example 200, 5-Fluoro-1-(4-fluoro-3-(4-methoxybenzylcarbamoyl)benzyl)quinazoline-2,4(1H,3H)-dione]
8 | 11 | 18 | – | – | O=C(c1cccc(Cn2c(=O)[nH]c(=O)c3ccccc32)c1)N1CCN(c2ncccn2)CC1 [Example 194, 1-(3-(4-(Pyrimidin-2-yl)piperazine-1-carbonyl)benzyl)quinazoline-2,4(1H,3H)-dione hydrochloride]
9 | 18 | 49 | – | – | O=C(c1cccc(Cn2c(=O)[nH]c(=O)c3c(F)cccc32)c1)N1CCN(C(=O)C2CCC2)CC1 [Example 165, 1-(3-(4-(Cyclobutylcarbonyl)piperazine-1-carbonyl)benzyl)-5-fluoroquinazoline-2,4(1H,3H)-dione]
10 | 23 | 70 | – | – | O=C(c1ccc(F)c(Cn2c(=O)[nH]c(=O)c3c(Cl)cccc32)c1)N1CCN(C(=O)c2cccs2)CC1 [Example 171, 5-Chloro-1-(6-fluoro-3-(4-(thiophene-2-carbonyl)piperazine-1-carbonyl)benzyl)quinazoline-2,4(1H,3H)-dione]
11 | 13 | 12 | – | – | O=C(c1cccc(Cn2c(=O)[nH]c(=O)c3cc(F)ccc32)c1)N1CCN(C(=O)c2cccs2)CC1 [Example 141, 6-Fluoro-1-(3-(4-(thiophene-2-carbonyl)piperazine-1-carbonyl)benzyl)quinazoline-2,4(1H,3H)-dione]
12 | – | – | > 10000 | > 10000 | O=C(c1cccc(Cn2c(=O)[nH]c(=O)c3cc4c(cc32)OCCO4)c1)N1CCN(c2ncccn2)CC1 [Example 207, 6,7-Ethylenedioxo-1-(3-(4-(pyrimidin-2-yl)piperazine-1-carbonyl)benzyl)quinazoline-2,4(1H,3H)-dione]
13 | 8.6 | 7.8 | – | – | O=C(c1ccc(F)c(Cn2c(=O)[nH]c(=O)c3c(F)cccc32)c1)N1CCN(C(=O)C2CCCC2)CC1 [Example 158, 1-(3-(4-(Cyclopentylcarbonyl)piperazine-1-carbonyl)-6-fluorobenzyl)-5-fluoroquinazoline-2,4(1H,3H)-dione]

Continued, molecule first:

Row | Molecule | EC50 ([1]; Homo sapiens, T47D, 24 h) [nM] | IC50 [2, 3] [nM] | EC50 [1] [nM] | IC50 [2, 4] [nM]
14 | O=C(c1cccc(Cn2c(=O)[nH]c(=O)c3cc(Cl)ccc32)c1)N1CCN(c2ccccn2)CC1 [Example 114, 6-Chloro-1-(3-(4-(pyridin-2-yl)piperazine-1-carbonyl)benzyl)quinazoline-2,4(1H,3H)-dione] | 19 | 51 | – | –
15 | O=C(c1cccc(Cn2c(=O)[nH]c(=O)c3ccccc32)c1)N1CCN(c2ccc3nncn3n2)CC1 [Example 6, 1-(3-(4-([1,2,4]Triazolo[4,3-b]pyridazin-6-yl)piperazine-1-carbonyl)benzyl)quinazoline-2,4(1H,3H)-dione] | 2520 | 7030 | – | –
16 | CC(=O)N1CCN(C(=O)c2cccc(Cn3c(=O)[nH]c(=O)c4ccccc43)c2)CC1 [Example 17, 1-(3-(4-Acetylpiperazine-1-carbonyl)benzyl)quinazoline-2,4(1H,3H)-dione] | 5020 | > 10000 | – | –
17 | O=C(c1cccc(Cn2c(=O)[nH]c(=O)c3ccccc32)c1)N1CCC(Oc2ccccc2)CC1 [Example 39, 1-(3-(4-Phenoxypiperidine-1-carbonyl)benzyl)quinazoline-2,4(1H,3H)-dione] | 614 | 604 | – | –
18 | O=C(c1ccc(F)cc1)N1CCN(C(=O)c2cccc(Cn3c(=O)[nH]c(=O)c4ccccc43)c2)CC1 [Example 9, 1-(3-(4-(4-Fluorobenzoyl)piperazine-1-carbonyl)benzyl)quinazoline-2,4(1H,3H)-dione] | 426 | 500 | – | –
19 | O=C(c1ccoc1)N1CCN(C(=O)c2cccc(Cn3c(=O)[nH]c(=O)c4ccccc43)c2)CC1 [Example 34, 1-(3-(4-(Furan-3-carbonyl)piperazine-1-carbonyl)benzyl)quinazoline-2,4(1H,3H)-dione] | 104 | 294 | – | –
20 | O=C(c1ccsc1)N1CCN(C(=O)c2cccc(Cn3c(=O)[nH]c(=O)c4ccccc43)c2)CC1 [Example 35, 1-(3-(4-(Thiophene-3-carbonyl)piperazine-1-carbonyl)benzyl)quinazoline-2,4(1H,3H)-dione] | 238 | 265 | – | –
21 | O=C(c1cccc(Cn2c(=O)[nH]c(=O)c3ccccc32)c1)N1CCN(CC2CCCC2)CC1 [Example 74, 1-(3-(4-(Cyclopentylmethyl)piperazine-1-carbonyl)benzyl)quinazoline-2,4(1H,3H)-dione] | 2110 | > 10000 | – | –
22 | O=C(c1cccc(Cn2c(=O)[nH]c(=O)c3cc(Cl)ccc32)c1)N1CCN(C(=O)C2CCC2)CC1 [Example 116, 6-Chloro-1-(3-(4-(cyclobutylcarbonyl)piperazine-1-carbonyl)benzyl)quinazoline-2,4(1H,3H)-dione] | 13 | 48 | – | –
23 | O=C(c1ccccc1)N1CCN(C(=O)c2ccc(Cn3c(=O)[nH]c(=O)c4ccccc43)cc2)CC1 [Example 93, 1-(4-(4-Benzoylpiperazine-1-carbonyl)benzyl)quinazoline-2,4(1H,3H)-dione] | > 10000 | > 10000 | – | –
24 | O=C(c1cccc(Cn2c(=O)[nH]c(=O)c3cccc(F)c32)c1)N1CCN(C(=O)C2CCCCC2)CC1 [Example 138, 1-(3-(4-(Cyclohexylcarbonyl)piperazine-1-carbonyl)benzyl)-8-fluoroquinazoline-2,4(1H,3H)-dione] | 281 | 351 | – | –
25 | O=C(c1cccc(Cn2c(=O)[nH]c(=O)c3ccccc32)c1)N1CCN(C(=O)c2ccccn2)CC1 [Example 37, 1-(3-(4-(Pyridine-2-carbonyl)piperazine-1-carbonyl)benzyl)quinazoline-2,4(1H,3H)-dione] | 1910 | > 10000 | – | –
26 | Cc1ccc2c(=O)[nH]c(=O)n(Cc3cccc(C(=O)N4CCN(c5ncccn5)CC4)c3)c2c1 [Example 80, 7-Methyl-1-(3-(4-(pyrimidin-2-yl)piperazine-1-carbonyl)benzyl)quinazoline-2,4(1H,3H)-dione] | 1190 | > 10000 | – | –
27 | COc1ccc(C(=O)N2CCN(C(=O)c3ccc(Cn4c(=O)[nH]c(=O)c5ccccc54)cc3)CC2)cc1 [Example 95, 1-(4-(4-(4-Methoxybenzoyl)piperazine-1-carbonyl)benzyl)quinazoline-2,4(1H,3H)-dione] | > 10000 | > 10000 | – | –
28 | O=C(c1ccc(Cl)cc1)N1CCN(C(=O)c2cccc(Cn3c(=O)[nH]c(=O)c4ccccc43)c2)CC1 [Example 10, 1-(3-(4-(4-Chlorobenzoyl)piperazine-1-carbonyl)benzyl)quinazoline-2,4(1H,3H)-dione] | 400 | 439 | – | –
29 | CCS(=O)(=O)N1CCN(C(=O)c2cccc(Cn3c(=O)[nH]c(=O)c4ccccc43)c2)CC1 [Example 16, 1-(3-(4-(Ethylsulfonyl)piperazine-1-carbonyl)benzyl)quinazoline-2,4(1H,3H)-dione] | 9210 | 7260 | – | –
30 | O=C(c1cccc(Cn2c(=O)[nH]c(=O)c3c(F)cccc32)c1)N1CCN(c2ccccn2)CC1 [Example 130, 5-Fluoro-1-(3-(4-(pyridin-2-yl)piperazine-1-carbonyl)benzyl)quinazoline-2,4(1H,3H)-dione] | 87 | 15 | – | –
31 | O=C(c1cccc(Cn2c(=O)[nH]c(=O)c3ccccc32)c1)N1CCN(C(=O)c2ccco2)CC1 [Example 33, 1-(3-(4-(Furan-2-carbonyl)piperazine-1-carbonyl)benzyl)quinazoline-2,4(1H,3H)-dione] | 96 | 130 | – | –
